Assay results: patent US4374149A, “α-{[(Arylalkyl)amino]alkyl}-4-hydroxy-3-(lower-alkylsul finyl)benzenemethanols” (Sterling Drug Inc., priority 1978, dated 1983)
Counter-ions that a name gives are not always drawn.

Tests used:
β-adrenergic = β-adrenergic blocking activity, inhibition of isoproterenol-elicited heart rate increase in pentobarbitalized dog; assay type: in vivo; conditions: i.v.; for Dog β-blockade AED50 (approximate intravenous dose for 50% inhibition of isoproterenol-elicited heart rate increase): pentobarbitalized dog
Description: The β-adrenergic blocking activity was determined in the pentobarbitalized dog as judged by the ability of the test compound to inhibit the elevation in heart rate elicited by a 0.5 mcg./kg. i.v. injection of isoproterenol.
^e AED50 = approximate intravenous dose required to cause 50%

systolic blood pressure = experiment: Antihypertensive activity, reduction in systolic blood pressure, single oral medication, unanesthetized spontaneous hypertensive rat; assay type: in vivo; conditions: P.O.; for Antihypertensive activity SH Rat AHD40 (single oral dose required to induce a 40 mm. average reduction in systolic blood pressure): unanesthetized SH rat
Description: Antihypertensive activity was determined on the basis of the observed reduction in systolic blood pressure measured according to the method of H. Kersten et al., J. Lab. and Clin. Med. 32, 1090 (1947) following a single oral medication in the unanesthetized spontaneous hypertensive rat described by Okamato et al., Japan Circulation J. 27, 282 (1963).
^a AHD40 = single oral dose required to induce a 40 mm. average

[1] = test system: isolated rabbit ear artery; experiment: Vasodilator activity, perfusion pressure in isolated rabbit ear artery
Source text: Vasodilator activity was judged on the basis of observed reduction in perfusion pressure in the hind limb vasculature of the anesthetized dog determined according to the procedure described by Jandhyala et al., European J. Pharm. 17, 357 (1972), and also on the basis of percent reduction in perfusion pressure as measured in the isolated rabbit ear artery according to the method described by De LaLande et al., Aust. J. Exp. Biol. Med. Sci. 43, 639 (1965).
^d Vasodilation is expressed as the percentage reduction in perfusion

blood pressure = experiment: Antihypertensive activity, sustained lowering of blood pressure, repeated oral medication, unanesthetized trained renal hypertensive dog; assay type: in vivo
Source text: Antihypertensive activity was also judged on the basis of sustained reduction of blood pressure observed in the unanesthetized trained renal hypertensive dog following repeated oral medication according to the procedure described by Lape et al., Arch.
^b MED10 = minimum repeated oral daily dose required to effect a

Row | SMILES | Dog β-blockade AED50 (approximate intravenous dose for 50% inhibition of isoproterenol-elicited heart rate increase) (β-adrenergic) | Actual reduction in blood pressure observed at the indicated dose (systolic blood pressure; 50 mg./kg.) | Antihypertensive activity SH Rat AHD40 (single oral dose required to induce a 40 mm. average reduction in systolic blood pressure) (systolic blood pressure) | further results
1 | C[S+]([O-])c1cc(CCNC(C)(C)CCc2ccccc2)ccc1O.Cl (centres unmarked) [Example 35C, 4-{2-[(1,1-dimethyl-3-phenylpropyl)amino]ethyl}-2-(methylsulfinyl)phenol hydrochloride] | 0.6 mg/kg | -20 mm. Hg | > 50 mg/kg | 
2 | COc1ccc(CCC(C)NCCc2ccc(O)c([S+](C)[O-])c2)cc1 (centres unmarked) [Example 36C, 4-<2-{[3-(4-methoxyphenyl)-1-methylpropyl]amino}ethyl>-2-(methylsulfinyl)phenol hydrochloride] |  |  | > 150 mg/kg | Actual reduction in blood pressure observed at the indicated dose (systolic blood pressure; 150 mg./kg., hydrochloride): -28 mm. Hg
3 | COc1ccc(CCC(C)NCC(O)c2ccc(O)c([S+](C)[O-])c2)cc1 (centres unmarked) [Example 24C, hydrochloride] |  | -12 mm. Hg |  | Dog β-blockade AED50 (approximate intravenous dose for 50% inhibition of isoproterenol-elicited heart rate increase) (β-adrenergic; hydrochloride): ca. 0.50 mg./kg.; Antihypertensive activity SH Rat AHD40 (single oral dose required to induce a 40 mm. average reduction in systolic blood pressure) (systolic blood pressure; hydrochloride): > 50 mg/kg
4 | COc1ccc(CCCC(C)NCC(O)c2ccc(O)c([S+](C)[O-])c2)cc1 (stereo not drawn) [Example 21D, 4-hydroxy-α-<{[4-(4-methoxyphenyl)-1-methylbutyl]amino}methyl>-3-(methylsulfinyl)benzenemethanol acetate salt] |  |  | 40.0 mg/kg | Rabbit Ear Artery vasodilation (percentage reduction in perfusion pressure from control level) ([1]; 1 × 10^-3 M, 1000 µM): 50%
5 | COc1cc(CCNCC(O)c2ccc(O)c([S+](C)[O-])c2)cc(OC)c1OC (stereo not drawn) [Example 28C, 4-hydroxy-3-(methylsulfinyl)-α-<{[2-(3,4,5-trimethoxyphenyl)ethyl]-amino}methyl>benzenemethanol hydrochloride] |  | -15 mm. Hg | > 50 mg/kg | 
6 | COc1ccc(CCC(C)NCC(O)c2ccc(O)c([S+](C)[O-])c2)cc1 (single isomer, unassigned) [Example 10, 4-hydroxy-α-<{[3-(4-methoxyphenyl)-1-methylpropyl]amino}methyl>-3-(methylsulfinyl)benzenemethanol hydrochloride] |  |  |  | Actual percentage inhibition of heart rate increase above control level observed at the indicated dose (β-adrenergic; 0.1 mg./kg.): 23%; Dog β-blockade AED50 (approximate intravenous dose for 50% inhibition of isoproterenol-elicited heart rate increase) (β-adrenergic; hydrochloride): > 0.10 mg/kg; Actual percentage reduction in blood pressure observed at the indicated dose (blood pressure; tid., 0.5 mg./kg., hydrochloride): 8%; Renal Hypertensive Dog MED10 (minimum repeated oral daily dose for sustained lowering of blood pressure of 10% or greater) (blood pressure; tid., hydrochloride): > 0.5 mg/kg; Actual reduction in blood pressure observed at the indicated dose (systolic blood pressure; 16.0 mg./kg., hydrochloride): -17 mm. Hg; Antihypertensive activity SH Rat AHD40 (single oral dose required to induce a 40 mm. average reduction in systolic blood pressure) (systolic blood pressure; hydrochloride): > 16.0 mg/kg; Rabbit Ear Artery vasodilation (percentage reduction in perfusion pressure from control level) ([1]; 2 × 10^-4 M, 200 µM): 50%
7 | COc1ccc(CCC(C)NCC(O)c2ccc(OC(=O)c3ccccc3)c([S+](C)[O-])c2)cc1 (stereo not drawn) [Example 8, 4-hydroxy-α-<{[3-(4-methoxyphenyl)-1-methylpropyl]amino}methyl>-3-(methylsulfinyl)benzenemethanol 4-benzoate hemi-sulfate] |  |  | 9 mg/kg | 
8 | CC(CCc1ccc(O)cc1)NCC(O)c1ccc(O)c([S+](C)[O-])c1 (single isomer, unassigned) [Example 23C, 4-hydroxy-α-<{[4-(4-hydroxyphenyl)-1-methylpropyl]amino}methyl>-3-(methylsulfinyl)benzenemethanol cyclohexylsulfamate salt] | < 0.025 mg/kg |  | 40.0 mg/kg | Actual percentage inhibition of heart rate increase above control level observed at the indicated dose (β-adrenergic; 0.025 mg./kg.): 80%
9 | CC(CCc1ccccc1)NCCc1ccc(O)c([S+](C)[O-])c1 (centres unmarked) [Example 33C, 4-<2-{[1-methyl-3-phenylpropyl]amino}ethyl>-2-(methylsulfinyl)phenolhydrochloride] | 1.0 mg/kg | -28 mm. Hg | > 50 mg/kg | 
10 | CCOCCOc1ccc(C(O)CNC(C)CCc2ccc(OC)cc2)cc1[S+](C)[O-] (stereo not drawn) [Example 32E, 4-[2-(ethoxy)ethoxy]-α-<{[3-(4-methoxyphenyl)-1-methylpropyl]amino}methyl>-3-(methylsulfinyl)benzenemethanol hydrochloride] |  |  | > 150 mg/kg | 
11 | COc1ccc(CCNCC(O)c2ccc(O)c([S+](C)[O-])c2)cc1OC (stereo not drawn) [Example 27C, α-<{[2-(3,4-dimethoxyphenyl)ethyl]amino}-methyl>-4-hydroxy-3-(methylsulfinyl)benzenemethanol hydrochloride] | ca. 0.10 mg./kg. | -26 mm. Hg | > 50 mg/kg | 
12 | COc1ccc(CC(C)NC(C)C(O)c2ccc(O)c([S+](C)[O-])c2)cc1 (stereo not drawn) [Example 15F, 4-hydroxy-α-<{1-[2-(4-methoxyphenyl)-1-methylethyl]amino}ethyl>-3-(methylsulfinyl)benzenemethanol acetate salt] |  |  | > 20.0 mg/kg | Actual reduction in blood pressure observed at the indicated dose (systolic blood pressure; 20 mg./kg.): -25 mm. Hg
13 | CC(CCc1ccc2c(c1)OCO2)NCC(O)c1ccc(O)c([S+](C)[O-])c1 (stereo not drawn) [Example 31C, 4-hydroxy-α-<{[3-(3,4-methylenedioxyphenyl)-1-methylpropyl]amino}methyl>-3-(methylsulfinyl)benzenemethanol hydrochloride] | < 0.025 mg/kg | -54 mm. Hg | < 50 mg/kg | Actual percentage inhibition of heart rate increase above control level observed at the indicated dose (β-adrenergic; 0.025 mg./kg.): 60%
14 | COc1ccc(CCC(C)NCC(O)c2ccc(O)c([S+](C)[O-])c2)cc1 (stereo not drawn) [Example 5G, 4-hydroxy-α-<{[3-(4-methoxyphenyl)-1-methylpropyl]amino}methyl>-3-(methylsulfinyl)benzenemethanol] |  |  |  | Rabbit Ear Artery vasodilation (percentage reduction in perfusion pressure from control level) ([1]; 1 × 10^-4 M, 100 µM): 71%
15 | COc1ccc(CCC(C)NCC(=O)c2ccc(OC(=O)c3ccccc3)c([S+](C)[O-])c2)cc1Br (centres unmarked) [Example 7E, 4'-hydroxy-2-{[3-(3-bromo-4-methoxyphenyl)-1-methylpropyl]-amino}-3'-(methylsulfinyl)acetophenone 4'-benzoate hydrochloride] | > 1.0 mg/kg |  | 30 mg/kg | Actual percentage inhibition of heart rate increase above control level observed at the indicated dose (β-adrenergic; 1.0 mg./kg.): 12%; Renal Hypertensive Dog MED10 (minimum repeated oral daily dose for sustained lowering of blood pressure of 10% or greater) (blood pressure; administered once per day): ~.10 mg/kg
16 | COc1ccc(CCC(C)NCC(O)c2ccc(O)c([S+](C)[O-])c2)cc1 (stereo not drawn) [Example 5F, 4-hydroxy-α-<{[3-(4-methoxyphenyl)-1-methylpropyl]amino}methyl>-3-(methylsulfinyl)benzenemethanol] | < 0.25 mg/kg |  | 4.0 mg/kg | Actual percentage inhibition of heart rate increase above control level observed at the indicated dose (β-adrenergic; 0.25 mg./kg.): 70%; Rabbit Ear Artery vasodilation (percentage reduction in perfusion pressure from control level) ([1]; 5 × 10^-5 M, 50 µM): 50%
17 | COc1ccc(CCC(C)NCCc2ccc(O)c([S+](C)[O-])c2)cc1 (centres unmarked) [Example 37C, 4-<2-{[3-(4-methoxyphenyl)-1-methylpropyl]amino}ethyl>-2-(methylsulfinyl)phenol hydrochloride] |  |  | > 150 mg/kg | Actual reduction in blood pressure observed at the indicated dose (systolic blood pressure; 150 mg./kg., hydrochloride): -21 mm. Hg
18 | COc1ccc(CCC(C)NCC(=O)c2ccc(OC(=O)c3ccccc3)c([S+](C)[O-])c2)cc1 (centres unmarked) [Example 25, 4'-hydroxy-2-{[3-(4-methoxyphenyl)-1-methylpropyl]amino}-3'-(methylsulfinyl)acetophenone 4'-benzoate hydrochloride] |  | -12 mm. Hg | > 50 mg/kg | 
19 | COc1ccc(CCC(C)NCCc2ccc(O)c([S+](C)[O-])c2)cc1 (single isomer, unassigned) [Example 29C, 4-<2-{[3-(4-methoxyphenyl)-1-methylpropyl]amino}ethyl>-2-(methylsulfinyl)phenol hydrochloride] | > 1.0 mg/kg |  | < 20 mg/kg | Actual percentage inhibition of heart rate increase above control level observed at the indicated dose (β-adrenergic; 1.0 mg./kg.): 43%; Renal Hypertensive Dog MED10 (minimum repeated oral daily dose for sustained lowering of blood pressure of 10% or greater) (blood pressure; administered once per day): > 40 mg/kg; Actual reduction in blood pressure observed at the indicated dose (systolic blood pressure; 20 mg./kg.): -54 mm. Hg
20 | COc1ccc(CCCC(C)(C)NCC(O)c2ccc(O)c([S+](C)[O-])c2)cc1 (stereo not drawn) [Example 22D, 4-hydroxy-α-<{[4-(4-methoxyphenyl)-1,1-dimethylbutyl]amino}methyl>-3-(methylsulfinyl)benzenemethanol] |  | -12 mm. Hg | > 50.0 mg/kg | 
